In patent publication US9441018B2, “Gene from tidal flat metagenome and a novel protein displaying both phospholipase and lipase activities” (KOREA RESEARCH INSTITUTE OF BIOSCIENCE AND BIOTECHNOLOGY, priority 2011, dated 2016):
Where “and” joins values, the source holds several entries; their conditions need not be identical. Equal values may be shown once. Read-outs that look alike come from different tables or passages of the source.

Assays:
[1] = system: phospholipase/lipase MPIaG; assay type: biochemical, tidal flat metagenome
[2] = system: phospholipase/lipase MPIaG
Experimental: Particularly, enzyme activity was measured by the following two methods. […] The second method was spectrophotometric assay as standard method of the present invention. […] The increasing rate of para-nitrophenol hydrolyzed from the substrate was continuously measured at OD405. Unless informed otherwise, p-nitrophenyl caprate (C10) was used as a substrate. 1 unit (U) of enzyme was defined as the enzyme amount capable of producing 1 μmol of para-nitrophenol via hydrolysis.

| SMILES | Enzyme activity relative value (%) ([1]; additive 1 mM) | Enzyme activity relative value (%) ([1]; additive 5 mM) | Enzyme activity relative value (%) ([1]; additive 10 mM) | Enzyme activity relative value (%) ([2]; organic solvent 20%) | Enzyme activity relative value (%) ([2]; organic solvent 30%) | Enzyme activity relative value (%) ([2]; organic solvent 50%) | Enzyme activity relative value (%) ([2]; organic solvent 60%) | also measured |
| --- | --- | --- | --- | --- | --- | --- | --- | --- |
| [Cl-].[Cl-].[Co+2] [CoCl2] |  |  |  |  |  |  |  | Enzyme activity relative value (%) [1]: 120% and 177% and 116% |
| [Cl-].[Cl-].[Mg+2] [MgCl2] | 105 | 198 | 142 |  |  |  |  |  |
| [Cl][Ni][Cl] [NiCl2] | 62 | 23 | 7 |  |  |  |  |  |
| [Ca+2].[Cl-].[Cl-] [CaCl2] | 466 | 1015 | 994 |  |  |  |  | increase of enzyme activities [1]: approximately 10 times |
| [Cl-].[Cl-].[Zn+2] [ZnCl2] | 107 | 9 | 5 |  |  |  |  |  |
| CCO [Ethanol] |  |  |  | 100 | 95 | 94 | 98 |  |
| OCCS [2-mercaptoethanol] | 105 | 108 | 80 |  |  |  |  |  |
| CN(C)C=O [DMF, dimethylformamide] |  |  |  | 99 | 100 | 93 | 98 |  |
| O=C(O)CN(CCN(CC(=O)O)CC(=O)O)CC(=O)O [EDTA, ethylenediaminetetraacetic acid] |  |  |  |  |  |  |  | effect on enzyme activities (in words) [1]: strongly inhibited |
| CC(C)=O [Acetone] |  |  |  | 96 | 100 | 96 | 99 |  |
| O[C@H](CS)[C@H](O)CS (racemic) [DTT, dithiothreitol] | 93 | 107 | 105 |  |  |  |  |  |
| O=S(=O)(F)Cc1ccccc1 [PMSF, phenyl methyl sulfonyl fluoride] | 94 | 107 | 105 |  |  |  |  |  |
| CC#N [Acetonitrile] |  |  |  | 100 | 99 | 98 | 99 |  |
| CC(C)O [2-propanol] |  |  |  | 101 | 97 | 96 | 99 |  |
| C[S+](C)[O-] [DMSO, dimethyl sulfoxide] |  |  |  | 98 | 97 | 98 | 81 |  |
| [Cl][Cu][Cl] [CuCl2] | 135 | 32 | 11 |  |  |  |  |  |
| CO [Methanol] |  |  |  | 100 | 101 | 93 | 98 |  |
| O=S(=O)([O-])[O-].[Fe+2] [FeSO4] | 137 | 142 | 151 |  |  |  |  |  |
